Test results reported in the SangsterLogP compilation.

Assay: method code SF-HPLC, from DOI: 10.1021/jm00047a008, PMID: 7932579
Conditions: pH 5.0
With `Cc1ccc2c(c1)c(C)c1c3ccccc3nc-1n2C` the logD was 2.04.

Same assay, conditions: pH 9.0
For `Cc1c2c3ccccc3nc-2n(C)c2ccccc12`, the logD was 2.58.
`Cc1c2ccccc2nc2[nH]c3ccccc3c12` showed a logD of 2.69.
For `Cn1c2nc3ccccc3c-2cc2ccccc21`, the logD was 3.04.
In the case of `Cc1ccc2nc3[nH]c4ccc(C)cc4c3c(C)c2c1`, the logD is reported as 2.58.
`Cc1cccc2c(C)c3c(nc12)[nH]c1ccccc13` gave a logD of 2.92.
`Cc1ccc2nc3n(C)c4ccc(C)cc4c(C)c-3c2c1` showed a logD of 2.42.
With `Cc1c2c3ccccc3nc-2n(C)c2c(C)cccc12` the logD was 2.46.
In the case of `c1ccc2nc3[nH]c4ccccc4c3cc2c1`, the logD is reported as 2.44.
